# Reference: patent US6737383B1, “Herbicidal oxadiazolidines” (priority 1999, dated 2004)
# Experiments:
# morningglory = test: Test B pre/postemergence morningglory; assay type: in vivo, Ipomoea hederacea
# How it was run: (§1)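 Response is a visual 0-to-10 score relative to untreated plants, where 0 means no effect and 10 means complete control, taken twelve to sixteen days after application. Treatments went onto soil at planting and onto foliage of 1- to 4-leaf plants, using a surfactant-containing non-phytotoxic solvent.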
# smallflower flatsedge = test: Test B flood test smallflower flatsedge; assay type: in vivo, Cyperus difformis
# How it was run: (§2)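 Flood test on plants grown to the 2-leaf stage; treated plants kept in greenhouse twelve to sixteen days, then visually rated against controls on a 0 (no effect) to 10 (complete control) scale.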
# sugar beet = test: Test B pre/postemergence sugar beet; assay type: in vivo, Beta vulgaris
# How it was run: as §1
# pigweed = test: Test B pre/postemergence pigweed; assay type: in vivo, Amaranthus retroflexus
# How it was run: as §1
# blackgrass = test: Test B pre/postemergence blackgrass; assay type: in vivo, Alopecurus myosuroides
# How it was run: as §1
# surinam grass = test: Test B pre/postemergence surinam grass; assay type: in vivo, Brachiaria decumbens
# How it was run: as §1
# rice = test: Test B flood test rice; assay type: in vivo, Oryza sativa
# How it was run: as §2
# wild oat = test: Test B pre/postemergence wild oat; assay type: in vivo, Avena fatua
# How it was run: as §1
# corn = test: Test B pre/postemergence corn; assay type: in vivo, Zea mays
# How it was run: as §1
# purple nutsedge = test: Test B pre/postemergence purple nutsedge; assay type: in vivo, Cyperus rotundus
# How it was run: as §1
# giant foxtail = test: Test B pre/postemergence giant foxtail; assay type: in vivo, Setaria faberii
# How it was run: as §1
# cocklebur = test: Test B pre/postemergence cocklebur; assay type: in vivo, Xanthium strumarium
# How it was run: as §1
# duck salad = test: Test B flood test duck salad; assay type: in vivo, Heteranthera limosa
# How it was run: as §2
# bedstraw = test: Test B pre/postemergence bedstraw; assay type: in vivo, Galium aparine
# How it was run: as §1
# crabgrass = test: Test B pre/postemergence crabgrass; assay type: in vivo, Digitaria sanguinalis
# How it was run: as §1
# soybean = test: Test B pre/postemergence soybean; assay type: in vivo, Glycine max
# How it was run: as §1
# [1] = Preemergence, Rate 62 g/ha, scale of 0 to 10 where 0 is no effect and 10 is complete control
# [2] = Preemergence, Rate 250 g/ha, scale of 0 to 10 where 0 is no effect and 10 is complete control
# [3] = Preemergence, Rate 500 g/ha, scale of 0 to 10 where 0 is no effect and 10 is complete control
# [4] = Rate 125 g/ha, Preemergence, scale of 0 to 10 where 0 is no effect and 10 is complete control
# [5] = Rate 500 g/ha, Postemergence, scale 0 to 10, 0 no effect, 10 complete control
# [6] = Rate 62 g/ha, headed Pre-emergence (flood test species), scale 0 to 10 (0 no effect, 10 complete control)
# [7] = Rate 125 g/ha, Pre-emergence, flood test species, scale 0 to 10 where 0 is no effect and 10 is complete control
# [8] = Rate 250 g/ha, Pre-emergence, flood-test species, scale 0 to 10, 0 is no effect, 10 is complete control
# [9] = Rate 500 g/ha, Pre-emergence, flood test species, scale 0 to 10 (0 no effect, 10 complete control)
# [10] = Rate 62 g/ha, Postemergence, scale of 0 to 10 where 0 is no effect and 10 is complete control
# [11] = Rate 125 g/ha, Postemergence, scale 0 to 10
smiles,measurement,setting,value
CC(C)N(C(=O)n1oc(=O)n(CC(C)(C)C)c1=O)c1ccc(F)cc1 [Compound 246],Morningglory plant response rating,morningglory; [1],0
same,Morningglory plant response rating,morningglory; [2],0
same,"Plant response rating, Morningglory",morningglory; [3],0
same,Morningglory plant response rating,morningglory; [4],0
same,"Plant response rating (0 to 10; 0 is no effect, 10 is complete control), Morningglory","morningglory; Rate 250 g/ha, Postemergence",9
same,Morningglory plant response rating,morningglory; [5],9
same,S. Flatsedge plant response rating,smallflower flatsedge; [6],0
same,S. Flatsedge plant response rating,smallflower flatsedge; [7],0
same,S. Flatsedge plant response rating,smallflower flatsedge; [8],0
same,S. Flatsedge plant response rating,smallflower flatsedge; [9],0
same,Sugarbeets plant response rating,sugar beet; [1],0
same,Sugarbeets plant response rating,sugar beet; [2],2
same,"Plant response rating, Sugarbeets",sugar beet; [3],8
same,Sugarbeets plant response rating,sugar beet; [4],1
same,Sugarbeets plant response rating,sugar beet; [5],0
same,Redroot pigweed plant response rating,pigweed; [1],0
same,Redroot pigweed plant response rating,pigweed; [2],0
same,"Plant response rating, Redroot pigweed",pigweed; [3],3
same,Redroot pigweed plant response rating,pigweed; [4],0
same,"Plant response rating (0 to 10; 0 is no effect, 10 is complete control), Redroot pigweed","pigweed; Rate 250 g/ha, Postemergence",2
same,Redroot pigweed plant response rating,pigweed; [5],3
same,Blackgrass plant response rating,blackgrass; [2],6
same,"Plant response rating, Blackgrass",blackgrass; [3],10
same,Blackgrass plant response rating,blackgrass; [10],0
same,Blackgrass plant response rating,blackgrass; [11],2
same,Blackgrass plant response rating,blackgrass; [4],5
same,"Plant response rating (0 to 10; 0 is no effect, 10 is complete control), Blackgrass","blackgrass; Rate 250 g/ha, Postemergence",6
same,Blackgrass plant response rating,blackgrass; [5],8
same,B. signalgrass plant response rating,surinam grass; [1],0
same,B. signalgrass plant response rating,surinam grass; [2],3
same,"Plant response rating, B. signalgrass",surinam grass; [3],5
same,B. signalgrass plant response rating,surinam grass; [10],0
same,B. signalgrass plant response rating,"surinam grass; Rate 125 g/ha, Postemergence, scale 0 (no effect) to 10 (complete control)",0
same,B. signalgrass plant response rating,surinam grass; [4],2
same,"Plant response rating (0 to 10; 0 is no effect, 10 is complete control), B. signalgrass","surinam grass; Rate 250 g/ha, Postemergence",0
same,B. signalgrass plant response rating,surinam grass; [5],1
same,Rice plant response rating,rice; [6],0
same,Rice plant response rating,rice; [7],0
same,Rice plant response rating,rice; [8],0
same,Rice plant response rating,rice; [9],0
same,Wild oats plant response rating,wild oat; [1],2
same,Wild oats plant response rating,wild oat; [2],6
same,"Plant response rating, Wild oats",wild oat; [3],8
same,Wild oats plant response rating,wild oat; [4],3
same,Wild oats plant response rating,wild oat; [5],0
same,Corn plant response rating,corn; [1],0
same,Corn plant response rating,corn; [2],0
same,"Plant response rating, Corn",corn; [3],3
same,Corn plant response rating,corn; [10],0
same,Corn plant response rating,corn; [11],0
same,Corn plant response rating,corn; [4],0
same,"Plant response rating (0 to 10; 0 is no effect, 10 is complete control), Corn","corn; Rate 250 g/ha, Postemergence",0
same,Corn plant response rating,corn; [5],0
same,Nutsedge plant response rating,purple nutsedge; [2],0
same,"Plant response rating, Nutsedge",purple nutsedge; [3],0
same,"Plant response rating (0 to 10; 0 is no effect, 10 is complete control), Nutsedge","purple nutsedge; Rate 250 g/ha, Postemergence",0
same,Nutsedge plant response rating,purple nutsedge; [5],3
same,Giant foxtail plant response rating,giant foxtail; [1],8
same,Giant foxtail plant response rating,giant foxtail; [2],10
same,"Plant response rating, Giant foxtail",giant foxtail; [3],10
same,Giant foxtail plant response rating,giant foxtail; [4],9
same,"Plant response rating (0 to 10; 0 is no effect, 10 is complete control), Giant foxtail","giant foxtail; Rate 250 g/ha, Postemergence",5
same,Giant foxtail plant response rating,giant foxtail; [5],8
same,Cocklebur plant response rating,cocklebur; [1],0
same,Cocklebur plant response rating,cocklebur; [2],0
same,"Plant response rating, Cocklebur",cocklebur; [3],0
same,Cocklebur plant response rating,cocklebur; [10],0
same,Cocklebur plant response rating,cocklebur; [11],0
same,Cocklebur plant response rating,cocklebur; [4],0
same,"Plant response rating (0 to 10; 0 is no effect, 10 is complete control), Cocklebur","cocklebur; Rate 250 g/ha, Postemergence",1
same,Cocklebur plant response rating,cocklebur; [5],2
same,Ducksalad plant response rating,duck salad; [6],0
same,Ducksalad plant response rating,duck salad; [7],0
same,Ducksalad plant response rating,duck salad; [8],0
same,Ducksalad plant response rating,duck salad; [9],0
same,Bedstraw plant response rating,bedstraw; [1],0
same,Bedstraw plant response rating,bedstraw; [2],0
same,"Plant response rating, Bedstraw",bedstraw; [3],2
same,Bedstraw plant response rating,bedstraw; [10],7
same,Bedstraw plant response rating,bedstraw; [11],7
same,Bedstraw plant response rating,bedstraw; [4],0
same,"Plant response rating (0 to 10; 0 is no effect, 10 is complete control), Bedstraw","bedstraw; Rate 250 g/ha, Postemergence",9
same,Bedstraw plant response rating,bedstraw; [5],9
same,Crabgrass plant response rating,crabgrass; [1],3
same,Crabgrass plant response rating,crabgrass; [2],10
same,"Plant response rating, Crabgrass",crabgrass; [3],10
same,Crabgrass plant response rating,crabgrass; [4],3
same,"Plant response rating (0 to 10; 0 is no effect, 10 is complete control), Crabgrass","crabgrass; Rate 250 g/ha, Postemergence",0
same,Crabgrass plant response rating,crabgrass; [5],3
same,Soybean plant response rating,soybean; [1],0
same,Soybean plant response rating,soybean; [2],0
same,"Plant response rating, Soybean",soybean; [3],2
same,Soybean plant response rating,soybean; [4],0
same,Soybean plant response rating,soybean; [5],4
